Structures can show the parent of a compound that is named as a salt.
Assay: in vitro
Conditions: rat, gh3-tre-luc cells, AC50 (uM) modified / 1000

Row | SMILES | CC50 at 24 h [µM]
1 | O=C1CCCC(=O)C1 [1,3-Cyclohexanedione] | > 90
2 | Cc1ccc(O)c([N+](=O)[O-])c1 [4-Methyl-2-nitrophenol] | > 90
3 | C=CCN(C1=NCCN1)c1c(Cl)cccc1Cl [Alinidine] | > 50
4 | CC1=C(CC=O)C(C)(C)CCC1 [2,6,6-Trimethyl-1-cyclohexene-1-acetaldehyde] | > 90
5 | C=CC[C@@H]1/C=C(\C)C[C@H](C)C[C@H](OC)[C@H]2O[C@@](O)(C(=O)C(=O)N3CCCC[C@H]3C(=O)O[C@H](/C(C)=C/[C@@H]3CC[C@@H](O)[C@H](OC)C3)[C@H](C)[C@@H](O)CC1=O)[C@H](C)C[C@@H]2OC [Tacrolimus] | > 50
6 | C[C@@H](c1ncncc1F)[C@](O)(Cn1cncn1)c1ccc(F)cc1F [Voriconazole] | > 50
7 | CCCCN(CCC(=O)OCC)C(C)=O [Ethyl 3-(N-butylacetamido)propionate] | > 90
8 | CC(C)COC(=O)c1ccccc1O [Isobutyl salicylate] | > 90
9 | CC(=C(CCOC(=O)C(C)C)SSC(CCOC(=O)C(C)C)=C(C)N(C=O)Cc1cnc(C)nc1N)N(C=O)Cc1cnc(C)nc1N (stereo in doubt) [Bisibutiamine] | > 50
10 | CCCCCCCCCCN [1-Decanamine] | > 90
11 | CC(C)Cn1cnc2c1c(=O)n(C)c(=O)n2C [Isbufylline] | > 50
12 | C[Si](C)(C)C [Tetramethylsilane] | > 90
13 | C=CC(C)(O)CCCC(C)CCCC(C)CCCC(C)C (stereo not shown) [Isophytol] | > 90
14 | CC(=O)C(=O)O [Pyruvic acid] | > 90
15 | COc1c(Br)cc(Br)c(C)c1Br [1,3,5-Tribromo-2-methoxy-4-methylbenzene] | > 90
16 | COc1ccc(C=O)cc1 [4-Methoxybenzaldehyde] | > 90
17 | NCc1ccccc1Sc1ccccc1CO [Bipenamol] | > 50
18 | CCCCCCCCCCOc1cc2c(O)c(C(=O)OCC)cnc2cc1OCC [Decoquinate] | > 50
19 | O=c1cc(-c2ccccc2)oc2cc(O)cc(O)c12 [Chrysin] | 62.4
20 | CN1CC(=O)N=C1NC(=O)Nc1cccc(Cl)c1 [Fenobam] | > 50
21 | CSc1nc(NC2CC2)nc(NC(C)(C)C)n1 [Cybutryne] | > 90
22 | CNC(C)=O [N-Methylacetamide] | > 90

Row | SMILES | CC50 at 24 h [µM]
23 | Oc1ccc2[nH]cc(CCCCN3CC=C(c4ccccc4)CC3)c2c1 [Roxindole] | 7.71
24 | COc1ccccc1NC(=O)c1cc2ccccc2cc1O [3-Hydroxy-2-naphthoic o-anisidide] | > 90
25 | CS(=O)(=O)O [Methanesulfonic acid] | > 90
26 | COC(=O)CCCCCCCC(=O)OC [Dimethyl nonanedioate] | > 90
27 | CCOC(=O)c1ccc(I)cc1 [Ethyl 4-iodobenzoate] | > 90
28 | CCCSS/C(CCO)=C(/C)N(C=O)Cc1cnc(C)nc1N [Prosultiamine] | 22.5
29 | CCOC(CN1CCN(CC(C)C(=O)c2ccccc2)CC1)c1ccccc1 (stereo not shown) [Eprazinone dihydrochloride] | > 50
30 | CC(C)(C)c1ccc(-c2ccc(C(C)(C)C)cc2)cc1 [4,4'-Di-tert-butylbiphenyl] | > 90
31 | CC(C)(C)OC=O [tert-Butyl formate] | > 100
32 | Cc1ccccc1C(N)=O [2-Methylbenzamide] | > 90
33 | COc1ccc(CCN(C)CCCN2CCc3cc(OC)c(OC)cc3CC2=O)cc1OC [Zatebradine hydrochloride] | > 50
34 | NC1CCN(c2cccc(Cl)n2)CC1 [SR 57227A hydrochloride] | 24.7
35 | C=C(C)C(=O)OCCC(C)OC(=O)C(=C)C (stereo not shown) [1,3-Butyleneglycol dimethacrylate] | > 90
36 | CN(C)C(=O)Nc1ccc(Cl)c(Cl)c1 [Diuron] | > 90
37 | COc1cc2nc(O)nc(O)c2cc1OC [6,7-Dimethoxyquinazoline-2,4(1H,3H)-dione] | > 20
38 | O=C(O)c1ccccc1C(=O)O [Phthalic acid] | > 90
39 | CC(C)(C)C1(CCc2ccc(Cl)cc2)CO1 (stereo not shown) [2-(2-(4-Chlorophenyl)ethyl)-2-(1,1-dimethylethyl)oxirane] | > 90
40 | C=CCOC(=O)C(=C)C [Allyl methacrylate] | > 100
41 | Clc1ccc(-c2ccc(Cl)c(Cl)c2Cl)c(Cl)c1Cl [Aroclor 1260] | > 90
42 | O=C(CO)[C@@H](O)[C@@H](O)[C@H](O)CO [D-Tagatose] | > 50
43 | Cc1ccc(N(CCO)CCO)cc1 [2,2'-[(4-Methylphenyl)imino]diethanol] | > 90
44 | CCCCOc1ccc(N)cc1 [4-Butyloxyaniline] | > 90

Row | SMILES | CC50 at 24 h [µM]
45 | c1nc[nH]n1 [1,2,4-Triazole, sodium salt] | > 90
46 | CC12CC3CC(C)(C1)CC(N)(C3)C2 [Memantine] | 38.1
47 | CC1(C)[C@H](C(=O)O[C@H](C#N)c2cccc(Oc3ccccc3)c2)[C@@H]1C=C(Cl)Cl [alpha-Cypermethrin] | > 90
48 | CC(C)C/C=C(/C=O)c1ccccc1 [5-Methyl-2-phenyl-2-hexenal] | 64.6
49 | COc1cc2nc(N3CCN(C(=O)c4ccco4)CC3)nc(N)c2cc1OC [Prazosin] | 8.15
50 | CCC(=O)OCC(=O)[C@@]1(OC(=O)CC)[C@H](C)C[C@H]2[C@@H]3CCC4=CC(=O)C=C[C@]4(C)[C@@]3(F)[C@@H](O)C[C@@]21C [Dexamethasone dipropionate] | > 50
51 | CCOC(=O)O[C@]1(C(=O)COC(=O)CC)CC[C@H]2[C@@H]3CCC4=CC(=O)C=C[C@]4(C)[C@H]3[C@@H](O)C[C@@]21C [Prednicarbate] | > 20
52 | C=C(C#N)C(=O)OCC [Ethyl cyanoacrylate] | > 90
53 | CCCN(CCC)C(=O)C(CCC(=O)OCCCN1CCN(CCOC(=O)Cc2c(C)n(C(=O)c3ccc(Cl)cc3)c3ccc(OC)cc23)CC1)NC(=O)c1ccccc1 (stereo not shown) [Proglumetacin] | 10.5
54 | CC(=O)OC/C=C(/C)CCC=C(C)C [cis-3,7-Dimethyl-2,6-octadien-1-yl acetate] | > 90
55 | Cc1cc(Cl)c(C)cc1Cl [1,4-Dichloro-2,5-dimethylbenzene] | > 90
56 | O=[N+]([O-])c1cc(I)c(O)c(I)c1 [2,6-Diiodo-4-nitrophenol] | 24.5
57 | CCCOCCOCCOCCO [2-[2-(2-Propoxyethoxy)ethoxy]ethanol] | > 90
58 | COc1ccc(C(=O)/C(Br)=C\C(=O)O)cc1 [Cytembena] | 44
59 | O=S(=O)(O)c1ccc2cc(O)ccc2c1 [Potassium 6-hydroxynaphthalene-2-sulfonate] | > 90
60 | C[CH2][Ge]([Cl])([CH2]C)[CH2]C [Triethylgermanium chloride] | > 90
61 | CC(C)=C[C@@H]1[C@@H](C(=O)OCc2coc(Cc3ccccc3)c2)C1(C)C [Bioresmethrin] | > 90
62 | CO[C@H]1/C=C/O[C@@]2(C)Oc3c(C)c(O)c4c(O)c(cc(O)c4c3C2=O)NC(=O)/C(C)=C\C=C\[C@H](C)[C@H](O)[C@@H](C)[C@@H](O)[C@@H](C)[C@H](OC(C)=O)[C@@H]1C [Rifamycin SV sodium salt] | 50.2
63 | O=C1Nc2ccccc2C1=O [Isatin] | > 90
64 | CC/C=C\CCCCCCCCCCOC(C)=O [(Z)-11-Tetradecenyl acetate] | > 90

Same assay, conditions: rat, gh3-tre-luc cells, AC50 (uM) modified / 1000, Tox21_110001=Tox21_111602; viability, 1 nM T3 present, 24 h

Row | SMILES | CC50 at 24 h [µM]
65 | CC1CCC(C(C)C)C(OC(=O)c2ccccc2N)C1 (stereo not shown) [Menthyl anthranilate] | 42.1

Same assay, conditions: rat, gh3-tre-luc cells, AC50 (uM) modified / 1000, Tox21_110001=Tox21_111785; viability, 1 nM T3 present, 24 h

Row | SMILES | CC50 at 24 h [µM]
66 | COc1ccc(C(=O)c2c(C)n(CCN3CCOCC3)c3ccccc23)cc1 [Pravadoline] | > 50

Same assay, conditions: rat, gh3-tre-luc cells, AC50 (uM) modified / 1000, Tox21_110001=Tox21_111832; viability, 1 nM T3 present, 24 h

Row | SMILES | CC50 at 24 h [µM]
67 | c1ccc(C2(N3CCCC3)CCCCC2)cc1 [Rolicyclidine] | 14.9

Same assay, conditions: rat, gh3-tre-luc cells, AC50 (uM) modified / 1000, Tox21_110001=Tox21_111928; viability, 1 nM T3 present, 24 h

Row | SMILES | CC50 at 24 h [µM]
68 | CNC(=O)Oc1ccccc1C(=O)Nc1ccccc1 [Anilamate] | > 50

Same assay, conditions: rat, gh3-tre-luc cells, AC50 (uM) modified / 1000, Tox21_110001=Tox21_112264; viability, 1 nM T3 present, 24 h

Row | SMILES | CC50 at 24 h [µM]
69 | CC(=O)[C@H]1CC[C@H]2[C@@H]3CC[C@H]4C[C@](C)(O)CC[C@]4(C)[C@H]3CC[C@]12C [Ganaxolone] | > 50

Same assay, conditions: rat, gh3-tre-luc cells, AC50 (uM) modified / 1000, Tox21_110001=Tox21_200561; viability, 1 nM T3 present, 24 h

Row | SMILES | CC50 at 24 h [µM]
70 | CC1CCC(C(C)C)C(OC(=O)c2ccccc2N)C1 (stereo not shown) [Menthyl anthranilate] | 27.5

Same assay, conditions: rat, gh3-tre-luc cells, AC50 (uM) modified / 1000, Tox21_110001=Tox21_202017; viability, 1 nM T3 present, 24 h

Row | SMILES | CC50 at 24 h [µM]
71 | CCOC(=O)CC(SP(=O)(OC)OC)C(=O)OCC (stereo not shown) [Malaoxon] | > 90

Same assay, conditions: rat, gh3-tre-luc cells, AC50 (uM) modified / 1000, Tox21_110001=Tox21_202297; viability, 1 nM T3 present, 24 h

Row | SMILES | CC50 at 24 h [µM]
72 | O=C(O)C(Br)Br [Dibromoacetic acid] | > 90

Same assay, conditions: rat, gh3-tre-luc cells, AC50 (uM) modified / 1000, Tox21_110001=Tox21_202465; viability, 1 nM T3 present, 24 h

Row | SMILES | CC50 at 24 h [µM]
73 | ClCC(Cl)Cl [1,1,2-Trichloroethane] | > 90

Same assay, conditions: rat, gh3-tre-luc cells, AC50 (uM) modified / 1000, Tox21_110001=Tox21_300822; viability, 1 nM T3 present, 24 h

Row | SMILES | CC50 at 24 h [µM]
74 | COC(=O)c1c(C(F)F)nc(C(F)(F)F)c(C2=NCCS2)c1CC(C)C [Thiazopyr] | > 90

Same assay, conditions: rat, gh3-tre-luc cells, AC50 (uM) modified / 1000, Tox21_110001=Tox21_301664; viability, 1 nM T3 present, 24 h

Row | SMILES | CC50 at 24 h [µM]
75 | CSc1ccc(C(=O)C(C)(C)N2CCOCC2)cc1 [2-Methyl-4'-(methylthio)-2-morpholinopropiophenone] | > 90

Same assay, conditions: rat, gh3-tre-luc cells, AC50 (uM) modified / 1000, Tox21_110001=Tox21_302404; viability, 1 nM T3 present, 24 h

Row | SMILES | CC50 at 24 h [µM]
76 | CCCCC(CC)COC(=O)c1c(Br)c(Br)c(Br)c(Br)c1C(=O)OCC(CC)CCCC (stereo not shown) [Bis(2-ethylhexyl) tetrabromophthalate] | > 70
